Molecules are shown by their SMILES.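 The compound was tested at five concentrations on cells cultured in 96-well plates, with a 48-hour exposure period. GI50 is the concentration that inhibits growth by half. The concentration for full growth arrest is given as TGI.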

The test system of one experiment is HT29 colon. Briefly: inhibition of tumour cell growth, NCI panel, 48 h.
Consider `COc1cc2oc(-c3ccc(O)cc3)c(OC3OC(C)C(O)C(O)C3O)c(=O)c2c(O)c1OC` (centres undefined), for which the TGI is more than 100 µM.
Turning to `CCCCc1c(O)nc(Nc2nc3ccccc3[nH]2)[nH]c1=O`, the TGI was more than 100 µM.
`O=C1CC2(C[C@@H]3CCCCCCCCC[C@@H](C3)C2)N1` (some centres undefined) showed a TGI of 26.9 µM.
Same read-out and setting: for `Cc1c(S(=O)(=O)c2ccccc2)c(N)n(Cc2ccccc2)c1C` the value was more than 100 µM; for `N#CC1=C(N)OC2=C(CSc3ccccc32)C1c1ccc(Br)cc1` (centres undefined), 18.4 µM; for `CC(C)(C)OC(=O)NC(C)(C)C(=O)NCCC(=O)O`, more than 100 µM.
Same read-out and setting: for `COc1ccc(C2C(Cl)C(=O)N2NC(=O)c2ccc(NC(C)=O)cc2)cc1` (centres undefined) the value was more than 100 µM.
The compound `O=C1O[C@@H](c2ccccc2)C[C@@H]1CN1CCOCC1` had a TGI of more than 100 µM.
Still for that read-out and setting: for `CCOC(=O)c1c(NC(=O)c2ccccc2)sc2c1CCCC2` the value was more than 100 µM; for `CCOC(=O)C(OCC1CC=CCC1)Sc1ccccc1` (centres undefined), more than 100 µM; for `c1cc(-c2cnc(-c3ccc4c(c3)CCCO4)o2)ccn1`, 41.3 µM.

In a further experiment the test system is CCRF-CEM leukemia. Briefly: inhibition of tumour cell growth, NCI panel, 48 h.
Take `Cc1ccc2c(c1)nc(N)n[n+]2[O-]`: the TGI was more than 100 µM.
On the same count and under the same terms, for `Cc1cn(C2CC(N)C(CN)O2)c(=O)[nH]c1=O` (centres undefined) the value was more than 100 µM; for `CC(C)CC(N)C(=O)OCN1C(=O)C2C3C=CC(C2C1=O)C1C2C(=O)N(COC(=O)C(N)CC(C)C)C(=O)C2C31` (centres undefined), more than 100 µM; for `O=C1CC(O)c2c1csc2Br` (centres undefined), 55.1 µM.
Turning to `CCCCCCCCCC[C@@H](O)[C@H]1CC[C@H]([C@H]2CC[C@H]([C@H](O)CCCCCCCCCC[C@@H]3CC(CC(C)=O)C(=O)O3)O2)O1` (some centres undefined), the GI50 is 1.74 µM and the TGI was more than 50 µM.
For `CC(C)(C)C(=O)C(CC(=O)c1ccccc1)C(=O)C(C)(C)C`, the TGI is more than 100 µM.
The same measure, in the same setting: for `COC(=O)c1cc(CC(C)C)c2c(c1)[nH]c1ccccc12` the value was more than 100 µM; for `Clc1nc(Cl)nc(NC23CC4CC(CC(C4)C2)C3)n1`, 23.1 µM.
As to `CCOC(=O)c1cc2c([N+](=O)[O-])c(NC(C)=O)ccc2s1`, the TGI was more than 100 µM.
Still for that read-out and setting: for `C[N+](C)(C)CC(=O)N/N=c1\cc(C(=O)Nc2ccc(N=O)cc2C#N)oc2cc(O)ccc12` the value was more than 100 µM.
In turn, `CCOC(=O)c1cc(=C2\CCN(CC(C)CC)C2=S)/c(=C(/O)CC)[nH]1` (centres undefined) returned a TGI of 21.7 µM.
`Cc1ccc2c(c1C)CC1(Cc3c(ccc4c3CCC4)C1=O)C2=O` (centres undefined) yielded a TGI of more than 100 µM.
Same read-out and setting: for `N#CCCN(c1ccc(C=Nc2cccc([N+](=O)[O-])c2)cc1)S(=O)(=O)c1ccccc1` the value was more than 100 µM.
On the same count and under the same terms, for `COc1cc2oc(-c3ccc(O)cc3)c(OC3OC(C)C(O)C(O)C3O)c(=O)c2c(O)c1OC` (centres undefined) the value was more than 100 µM; for `CCCCc1c(O)nc(Nc2nc3ccccc3[nH]2)[nH]c1=O`, more than 100 µM.
The same measure, in the same setting: for `O=C1CC2(C[C@@H]3CCCCCCCCC[C@@H](C3)C2)N1` (some centres undefined) the value was 37.6 µM; for `Cc1c(S(=O)(=O)c2ccccc2)c(N)n(Cc2ccccc2)c1C`, more than 100 µM.
Regarding `N#CC1=C(N)OC2=C(CSc3ccccc32)C1c1ccc(Br)cc1` (centres undefined), the TGI came to 6.83 µM.
`CC(C)(C)OC(=O)NC(C)(C)C(=O)NCCC(=O)O` registered a TGI of more than 100 µM.
`COc1ccc(C2C(Cl)C(=O)N2NC(=O)c2ccc(NC(C)=O)cc2)cc1` (centres undefined) came in with a TGI of more than 100 µM.
Same read-out and setting: for `C=CCN(CC=C)Cn1c(=S)sc2ccccc21` the value was 47.5 µM; for `O=C1O[C@@H](c2ccccc2)C[C@@H]1CN1CCOCC1`, more than 100 µM; for `CCOC(=O)c1c(NC(=O)c2ccccc2)sc2c1CCCC2`, more than 100 µM.
On the same count and under the same terms, for `CCOC(=O)C(OCC1CC=CCC1)Sc1ccccc1` (centres undefined) the value was more than 100 µM; for `c1cc(-c2cnc(-c3ccc4c(c3)CCCO4)o2)ccn1`, 29.7 µM.

The test system of another experiment is SF-295 CNS. Briefly: inhibition of tumour cell growth, NCI panel, 48 h.
Consider `Cc1ccc2c(c1)nc(N)n[n+]2[O-]`, for which the TGI was more than 100 µM.
The same measure, in the same setting: for `Cc1cn(C2CC(N)C(CN)O2)c(=O)[nH]c1=O` (centres undefined) the value was more than 100 µM; for `CC(C)CC(N)C(=O)OCN1C(=O)C2C3C=CC(C2C1=O)C1C2C(=O)N(COC(=O)C(N)CC(C)C)C(=O)C2C31` (centres undefined), more than 100 µM.
On the same count and under the same terms, for `O=C1CC(O)c2c1csc2Br` (centres undefined) the value was more than 100 µM.
For `CCCCCCCCCC[C@@H](O)[C@H]1CC[C@H]([C@H]2CC[C@H]([C@H](O)CCCCCCCCCC[C@@H]3CC(CC(C)=O)C(=O)O3)O2)O1` (some centres undefined), the GI50 was 2.22 µM and the TGI was more than 50 µM.
Take `CC(C)(C)C(=O)C(CC(=O)c1ccccc1)C(=O)C(C)(C)C`: the TGI was more than 100 µM.
In turn, `COC(=O)c1cc(CC(C)C)c2c(c1)[nH]c1ccccc12` displayed a TGI of more than 100 µM.
`Clc1nc(Cl)nc(NC23CC4CC(CC(C4)C2)C3)n1` came in with a TGI of 45.9 µM.
Still for that read-out and setting: for `CCOC(=O)c1cc2c([N+](=O)[O-])c(NC(C)=O)ccc2s1` the value was more than 100 µM; for `C[N+](C)(C)CC(=O)N/N=c1\cc(C(=O)Nc2ccc(N=O)cc2C#N)oc2cc(O)ccc12`, more than 100 µM.
Same read-out and setting: for `CCOC(=O)c1cc(=C2\CCN(CC(C)CC)C2=S)/c(=C(/O)CC)[nH]1` (centres undefined) the value was 34.4 µM; for `Cc1ccc2c(c1C)CC1(Cc3c(ccc4c3CCC4)C1=O)C2=O` (centres undefined), more than 100 µM; for `N#CCCN(c1ccc(C=Nc2cccc([N+](=O)[O-])c2)cc1)S(=O)(=O)c1ccccc1`, more than 100 µM.
Regarding `COc1cc2oc(-c3ccc(O)cc3)c(OC3OC(C)C(O)C(O)C3O)c(=O)c2c(O)c1OC` (centres undefined), the TGI is more than 100 µM.
The compound `CCCCc1c(O)nc(Nc2nc3ccccc3[nH]2)[nH]c1=O` yielded a TGI of more than 100 µM.
Compound `O=C1CC2(C[C@@H]3CCCCCCCCC[C@@H](C3)C2)N1` (some centres undefined) returned a TGI of 31.2 µM.
The same measure, in the same setting: for `Cc1c(S(=O)(=O)c2ccccc2)c(N)n(Cc2ccccc2)c1C` the value was more than 100 µM; for `N#CC1=C(N)OC2=C(CSc3ccccc32)C1c1ccc(Br)cc1` (centres undefined), 29 µM; for `CC(C)(C)OC(=O)NC(C)(C)C(=O)NCCC(=O)O`, more than 100 µM.
As for `COc1ccc(C2C(Cl)C(=O)N2NC(=O)c2ccc(NC(C)=O)cc2)cc1` (centres undefined), the TGI is more than 100 µM.
Still for that read-out and setting: for `C=CCN(CC=C)Cn1c(=S)sc2ccccc21` the value was more than 100 µM; for `O=C1O[C@@H](c2ccccc2)C[C@@H]1CN1CCOCC1`, more than 100 µM; for `CCOC(=O)c1c(NC(=O)c2ccccc2)sc2c1CCCC2`, more than 100 µM.
On the same count and under the same terms, for `CCOC(=O)C(OCC1CC=CCC1)Sc1ccccc1` (centres undefined) the value was more than 100 µM; for `c1cc(-c2cnc(-c3ccc4c(c3)CCCO4)o2)ccn1`, 37.4 µM.

For another experiment, the system named is EKVX NSCLC. Nature of the experiment: inhibition of tumour cell growth, NCI panel, 48 h.
Compound `Cc1ccc2c(c1)nc(N)n[n+]2[O-]` showed a TGI of more than 100 µM.
Compound `Cc1cn(C2CC(N)C(CN)O2)c(=O)[nH]c1=O` (centres undefined) came in with a TGI of more than 100 µM.
`CC(C)CC(N)C(=O)OCN1C(=O)C2C3C=CC(C2C1=O)C1C2C(=O)N(COC(=O)C(N)CC(C)C)C(=O)C2C31` (centres undefined) returned a TGI of more than 100 µM.
`O=C1CC(O)c2c1csc2Br` (centres undefined) registered a TGI of more than 100 µM.
For the compound `CCCCCCCCCC[C@@H](O)[C@H]1CC[C@H]([C@H]2CC[C@H]([C@H](O)CCCCCCCCCC[C@@H]3CC(CC(C)=O)C(=O)O3)O2)O1` (some centres undefined), the GI50 is 1.57 µM and the TGI was more than 50 µM.

These data come from PubChem BioAssay (NCI).
